According to PMC9453066, “Targeted control of pneumolysin production by a mobile genetic element in Streptococcus pneumoniae” (Microbial Genomics, 2022):

Tested on: ZomB
Conditions: saturating ssDNA (poly(dT)); 1 mM MgCl2, 50 mM NaCl, 2 mM DTT, 20 mM Tris-Cl pH 8.0, 25 °C; 50 nM ZomB

Nc1ncnc2c1ncn2[C@@H]1O[C@H](COP(=O)(O)OP(=O)(O)OP(=O)(O)O)[C@@H](O)[C@H]1O [ATP]
Km: 90 µM
